Non-standard residues stand in square brackets, D forms with d. Residues, ends and D or L forms follow the SMILES beside them. *: point of attachment. pGlu = O=C1CC[CH](C(=O)O)N1; Morpholide = C1CN(*)CCO1; Thz = O=C(O)[CH]1CSCN1
Row | Structure (SMILES) | melting point [°C]
1 | CC1CC(=O)NN=C1c1ccc2c(c1)C1(CC1)C(=O)N2 (stereo not given) | 291 to 293
2 | O=C(CBr)Nc1ccc(F)cc1C(=O)c1ccccc1Br | 110 to 114
3 | COc1cc(C2C3=C(COC3=O)Nc3ccc4nc(C)sc4c32)ccc1O (stereo not given) | 293 to 295
4 | Cc1cc(C)cc(C(N)=O)c1 | 148 to 149
5 | CCc1nc2cnc3ccccc3c2s1 | 48 to 49
6 | Cc1nnsc1C(=O)NCCc1ccccc1 | 64 to 68
7 | Cn1ncnc1COc1nc2c(-c3c(F)cccc3F)nncn2c1-c1ccccc1 | 190
8 | COc1ccc(Sc2ccc(NC(=N)N)cc2)cc1 | 140 to 141
9 | CCOc1nc2cccc(C(=O)O)c2n1Cc1ccc(-c2ccccc2)c(-c2nnn[nH]2)c1 | 183 to 185
10 | COc1cc2c(cc1OC)C(Cc1cc(I)c(N)c(I)c1)NCC2 (stereo not given) | 169 to 171
11 | COP(=O)(CCc1cccc2c1O[C@H]1C[C@@H](O)[C@H](CO)[C@@H]21)OC | 106 to 107
12 | COc1ccc(C2Sc3c(ccc4ccccc34)N(CCN(C)C)C(=O)C2OC(=O)c2ccc(OC)c(OC)c2)cc1 (stereo not given) | 182 to 183
13 | COc1ccc(C2=NN(C3CCN(CCCCCCN4C(=O)c5ccccc5C4=O)CC3)C(=O)[C@@H]3CC=CC[C@H]23)cc1OC | 39 to 44
14 | c1ccc(NCC2Oc3ccccc3O2)cc1 | 70 to 72
15 | CN1CCCCC1C(=O)NN=Cc1cc(Cl)cc(Cl)c1O (stereo not given) | 107 to 110
16 | Cc1c(C)c(N2CCN(c3ncccn3)CC2)c(C)c2c1OC(C)(C)C2 | 145 to 147
17 | Oc1ccc2oc(-c3ccc(O)c(F)c3)nc2c1 | 262 to 268
18 | C1COCCN2CCOCCOCCN(CCO1)CCSCCSCC2 | 78 to 80
19 | CC1(C)CCC(C#N)(Cc2ccc(Cl)cc2)C1=O (stereo not given) | 101 to 103
20 | O=C1CC(=O)NC(c2cccc(Cl)c2)=N1 | 256 to 257
21 | CC(=O)NCCc1ccc(CCl)cc1 | 86 to 88
22 | CNC(=C[N+](=O)[O-])N1CC1 | 118 to 119

Row | Structure (SMILES) | melting point [°C]
23 | CC(C)(C)c1cccc(S(=O)(=O)n2c(Cc3ccc(C(=O)O)c(F)c3)cc3cc(C(F)(F)F)ccc32)c1 | 144
24 | O=C(OCc1ccccc1)[C@H](Cc1ccc(-c2ccccc2)cc1)NCP(=O)(Oc1ccccc1)Oc1ccccc1 | 85 to 86
25 | Clc1ccc(C2=NNCC2c2ccccc2)cc1 (stereo not given) | 156 to 162
26 | [N-]=[N+]=NC[C@@H]1CN(c2cc(F)c(N3CNC(=O)C3)c(F)c2)C(=O)O1 | 186 to 188
27 | O=c1[nH]c2cc(Cl)cc(Cl)c2cc1Br | > 300
28 | CCCCCCCCCCCCCCCCCCOc1cccc(C(=O)C(=O)OC)c1 | 50 to 52
29 | CC1(CNC(=O)CCl)OCCc2c1[nH]c1ccccc21 (stereo not given) | 186 to 187
30 | CC(=O)c1cc2c(cc1NC(=O)C(O)(CC(C)(C)c1ccccc1)C(F)(F)F)COC2=O (stereo not given) | 195 to 199
31 | COc1ccc(-n2c(S)nc3cc(OC)cc(OC)c3c2=O)cc1 | 322 to 326
32 | Cc1c(N2CC[C@@H](O)[C@H](C)C2)c(F)cc2c(=O)c(C(=O)O)cn(C3CC3)c12 (relative stereo) | 206 to 210
33 | O=C1c2ccccc2N(N2CCCCCC2)C2=NCCN12 | 206 to 208
34 | Nc1cccc(Cn2c(-c3ccc(-c4cccnc4)cc3)ccc2-c2ccccc2Cl)n1 | 139 to 145
35 | Cc1c(-c2ccccc2)sc2nc(N)[nH]c(=O)c12 | 356 to 358
36 | CC1(C)OC(=O)Nc2c(F)cc(-c3ccc(F)c(Cl)c3)cc21 | 246 to 248
37 | CCCCCCCCCCOc1cc(OCCCCCCCCCC)cc(C(=O)O)c1 | 56 to 58
38 | CC(C)(C(=O)Nc1ccc(Cl)cc1)/C(F)=C\F | 100
39 | O=C1C/C(=C\c2ccccc2[N+](=O)[O-])C(=O)N1 | 148
40 | CN1C(=O)CC[C@]2(C)c3ccc(-c4cc(F)c([N+](=O)[O-])cc4F)cc3CC[C@@H]12 | 130 to 140
41 | CCOC(=O)C1=C(C)Nc2nc[nH]c(=O)c2C1c1ccccc1 (stereo not given) | 303 to 305
42 | CC(=O)c1cc(-c2c(Cl)ccc(C(=O)O)c2Cl)n(C)n1 | 200 to 203
43 | O=S(=O)(c1ccc(F)cc1)N1CCCC1c1ccc(F)c(Cl)c1 (racemic) | 116
44 | CN1CCN(N(c2ccccc2)c2nc3c(-c4c(F)cccc4F)n[nH]c3s2)CC1 | 208 to 210

Row | Structure (SMILES) | melting point [°C]
45 | N#Cc1c(N2CCCCC2)cc(-c2ccc3ccc4cccc5ccc2c3c45)c2c1-c1ccccc1C2 | 114 to 116
46 | CC(C)(C)OC(=O)Nc1ccc(-c2ccc(F)cc2)cc1[N+](=O)[O-] | 155 to 167
47 | COc1cc2ncnc(N3CCC(CCNS(C)(=O)=O)CC3)c2cc1OC | 162 to 164
48 | S=c1[nH]c2ccc(Cl)cc2c2nc(-c3ccco3)nn12 | 202 to 207
49 | CCCCCCCC(=O)NNC(=O)N1Cc2ccccc2Oc2ccc(Cl)cc21 | 127 to 129
50 | COc1cc(-c2nc3ccccc3n2Cc2ccc(Cl)cc2Cl)cc(OC)c1OC | 186
51 | O=C(O)CCN1CCN(c2ccccc2)CC1 | 213 to 215
52 | CCOC(=O)c1ccc(NCCOc2ccc(Br)c3ccccc23)cc1 | 126 to 127
53 | COc1cc2cn(-c3nccs3)nc2cc1OC | 184 to 187
54 | FC(F)(F)c1n[nH]c(-c2nc3ccccc3s2)n1 | 254
55 | C#CCOC(=O)C=C(C)C=CC=C(C)C=Cc1c(C)cc(OC)c(C)c1C | 94 to 95
56 | CCCCCCCCCCC1SCCCN1C(=S)Nc1cccc(Br)c1 (stereo not given) | 73 to 74
57 | Cc1nc2cccc(N)c2c(=O)n1[C@@]1(C)CCC(=O)NC1=O | 295 to 297
58 | Cc1cc(-c2cc(C(F)(F)F)n3ncc(C(=O)Nc4cccc(S(N)(=O)=O)c4)c3n2)ccc1C(F)(F)F | 245
59 | CCn1cc(CN(C(=O)C2CCCc3cc(OCCO)ccc32)c2ccc(C(C)C)cc2)cn1 (stereo not given) | 137
60 | O=C1CCC(C(=O)N2CSCC2C(=O)N2CCOCC2)N1 (stereo not given) ([pGlu]-[Thz]-Morpholide; configuration not given here) | 187 to 188
61 | CC1(C)C(C#N)C1C(=O)O (stereo not given) | 101 to 106
62 | CC(C)N(CCC(c1ccccc1)c1cc(CO)ccc1OC(=O)c1ccc([N+](=O)[O-])cc1)C(C)C (stereo not given) | 124
63 | CCOP(=O)(CC=CC(=O)O)OCC | 73 to 75
64 | COc1cc(C)c(C(=O)c2c(C(F)(F)F)ccnc2OC)cc1OC | 125 to 127
65 | CCOC(=O)c1ccc(NC(=O)C=C(C)c2ccc(Cl)c(Cl)c2)cc1 | 149 to 150
66 | Cc1ncnn1-c1ccc([N+](=O)[O-])cc1F | 56 to 58

Row | Structure (SMILES) | melting point [°C]
67 | CC(C)=CC1CC(C)=C(C)C2C(=O)OC(=O)C12 (stereo not given) | 78 to 82
68 | O=C(O)COc1ccc(NC(=O)c2csc(NC(=O)NCc3ccccc3)n2)cc1C(=O)O | 219
69 | CN(CC(=O)C(CCCCN)NC(=O)c1ccccc1)C(=O)N1CCCC1C(=O)O (stereo not given) | 130 to 133
70 | CCCN(CCC)NNc1nc(C(=O)c2ccccc2O)nc(C(=O)c2ccccc2O)n1 | 254 to 255
71 | COc1cccc(Cl)c1-c1cc2c(c3c1C(=O)NC3=O)c1cc(O)ccc1n2CCCN1C[C@@H](C)N[C@@H](C)C1 | 199 to 202
72 | O=C1CCc2c(Cc3ccc(Cl)cc3)cccc21 | 87 to 88
73 | Cc1ccccc1-c1c(C(C)n2cnc3c(N)ncnc32)oc2ccccc2c1=O (stereo not given) | 202 to 205
74 | COc1ccccc1[C@H](c1cccc2ccccc12)[C@@](C)(C#N)C(=O)N1CCN(c2cccc(C)c2)CC1 | 104 to 105
75 | Cc1cccc2c(-c3ccc(Cl)cc3Cl)onc12 | 94 to 95
76 | CCCCC(CC(=O)Nc1cc(C(N)=O)ccc1C(C)(C)C)c1cc(Cl)c(OCCCS(=O)(=O)CCC)cc1OC (stereo not given) | 144 to 150
77 | CN(C)C(=O)CON(Cc1ccc(F)cc1)C(=O)C=C(O)C(=O)O | 118 to 120
78 | Cc1ccc2cccc(OCc3c(Cl)ccc(S(=O)(=O)N4CCC[C@H]4C(=O)NCCCNC(=O)c4ccc(C(N)=NO)cc4)c3Cl)c2n1 | 120 to 124
79 | O=C1c2cccc3cc4ccccc4c(c23)C(=O)N1CCNCCN1C(=O)c2cccc3cc4ccccc4c(c23)C1=O | 271
80 | CN(C(=O)OC(C)(C)C)c1cc(Oc2ccc(-n3ccnc3)cc2)ccc1N | 115 to 116
81 | CCOC(=O)C1=C(C)N=C(SCc2ccc(OC)cc2)N(C(=O)OCC)C1c1cccc(Cl)c1Cl (stereo not given) | 124 to 126
82 | CC1(C)COC(c2ccc3c(c2)COC3=O)=N1 | 109 to 111
83 | CC(C)CCN1C(=O)C2(COc3cc4c(cc32)OCCO4)c2c1ccc1ncsc21 (stereo not given) | 169 to 171
84 | Cn1cncc1C(N)(c1ccc(Cl)cc1)c1ccc2c(c1)c(CCc1cccc(Cl)c1)cc(=O)n2C (stereo not given) | 165
85 | N#CC(=NO)c1c(F)cccc1Cl | 119 to 120

Source: a melting point compilation (Tetko et al.; mined from patent text by program, amines drawn as free bases though some values may be those of a salt)
